Patent US20220220099A1, “BENZAMIDE COMPOUND, AND HERBICIDE” (Nippon Soda Co., Ltd., priority 2019, published 2022)

Test system: Apera spica-venti
Assay: Test Example 2: spraying treatment on stems and leaves, herbicidal rate
Assay type: in vivo
Settings: spray amount of 16 g, three weeks later
Description: Emulsion for testing was prepared according to the preparation method described in Test Example 1.
A 150 cm^2 pot was filled with soil, and seeds of Avena sativa, Lolium multiflorum and Apera spica-venti were sowed on the surface layer, and after the soil was covered lightly, the Avena sativa, Lolium multiflorum and Apera spica-venti were grown in a greenhouse. At the point in time when Avena sativa was grown to a plant height of 16 to 20 cm, Lolium multiflorum was grown to a plant height of 10 to 14 cm, and Apera spica-venti was grown to a plant height of 2 to 4 cm, the emulsion for testing was diluted in such a way as to have a predetermined amount of an active ingredient and was sprayed on the leaves and stems in a spray amount of water of 250 L per hectare with a small-sized atomizer.
Three weeks later, the weight of a living weed above the ground was measured for each weed in the nontreated zone and in the treated zone to calculate a herbicidal rate by the following calculation formula.
Herbicidal rate (%)=(weight of living weed above ground in nontreated zone−weight of living weed above ground in treated zone)/(weight of living weed above ground in nontreated zone)×100 […]

SMILES	herbicidal activity (Apera spica-venti, follows Table 10)
O=C(Nc1nnnn1CC(F)(F)F)c1ccc(C(F)(F)F)c2c1CCCS2 [c-6]	≥ 80%

Test system: not given
Assay: not given
Settings: not given

SMILES	melting point
Cn1nnnc1NC(=O)c1ccc(C(F)(F)F)c2c1CCCS2 [a-37, N-(1-Methyl-1H-tetrazol-5-yl)-8-(trifluoromethyl)thiochromane-5-carboxamide]	166 to 167 °C
CCOC1CS(=O)(=O)c2c(C(F)(F)F)ccc(C(=O)Nc3nnnn3C)c21 (stereo not drawn) [b-1]	209 to 211 °C
COCC1Cc2c(C(=O)Nc3nnnn3C)ccc(C(F)(F)F)c2S1(=O)=O (stereo not drawn) [b-2]	215 to 217 °C
Cn1nnnc1NC(=O)c1ccc(C(F)(F)F)c2c1C(O)CS2(=O)=O (stereo not drawn) [b-3]	202 to 205 °C
Cn1nnnc1NC(=O)c1ccc(C(F)(F)F)c2c1C(Br)CS2(=O)=O (stereo not drawn) [b-4]	209 to 211 °C
COC1CS(=O)(=O)c2c(C(F)(F)F)ccc(C(=O)Nc3nnc(C)o3)c21 (stereo not drawn) [b-5]	206 to 207 °C
COC1Cc2c(C(=O)Nc3nnnn3C)ccc(C(F)(F)F)c2S(=O)(=O)C1 (stereo not drawn) [b-8]	226 to 228 °C
COC1CSc2c(C(F)(F)F)ccc(C(=O)Nc3nnnn3C)c2C1 (stereo not drawn) [b-9]	168 to 170 °C
Cn1nnnc1NC(=O)c1ccc(C(F)(F)F)c2c1C(F)CCS2(=O)=O (stereo not drawn) [b-10]	220 to 223 °C
Cn1nnnc1NC(=O)c1ccc(C(F)(F)F)c2c1C(F)CCS2 (stereo not drawn) [b-11]	132 to 135 °C
CC1CCc2c(C(=O)Nc3nnnn3C)ccc(C(F)(F)F)c2S1(=O)=O (stereo not drawn) [b-12]	270 to 271 °C
Cc1nnc(NC(=O)c2ccc(C(F)(F)F)c3c2CCC(C)S3)o1 (stereo not drawn) [b-14]	182 to 183 °C
Cn1nnnc1NC(=O)c1ccc(C(F)(F)F)c2c1CCCS2(=O)=NC#N (stereo not drawn) [b-19]	151 to 153 °C
CC1CCc2c(C(=O)Nc3nnnn3C)ccc(C(F)(F)F)c2/S1=N/C#N (stereo not drawn) [b-21]	117 to 120 °C
COc1ccc(N=S2(=O)CCCc3c(C(=O)Nc4nnnn4C)ccc(C(F)(F)F)c32)cc1 (stereo not drawn) [b-22]	123 to 124 °C
Cn1nnnc1NC(=O)c1ccc(C(F)(F)F)c2c1CCCS2(=O)=Nc1ccccc1 (stereo not drawn) [b-23]	110 to 112 °C
Cn1nnnc1NC(=O)c1ccc(C(F)(F)F)c2c1CCCS2(=O)=Nc1ccc(Cl)cc1 (stereo not drawn) [b-24]	113 to 114 °C
